Data reported in patent publication EP4644401A1, “ALLULOSE SYRUP WITH IMPROVED PROPERTY” (Samyang Corporation, priority 2022, dated 2024).
Converted amounts (≈) assume the structure as drawn.

Assay: Solubility analysis of allulose dimer crystals in water
Assay type: physicochemical
Conditions: water as solvent, solvent temperature 25°C

For O=C(CO)[C@H](O)[C@H](O)[C@H](O)CO [allulose], the solubility was 340 mg/mL (≈ 1890 mM).
